Test results: US20070054943A1, “Therapeutic agent for keratoconjunctival disorder” (SANTEN PHARMACEUTICAL CO., LTD., priority 2004, published 2007)
Entries after “also recorded” stand apart in the source; their conditions may differ.

Test system: corneal disorder models
Experiment: Test for therapeutic effect on corneal damage (corneal disorder models, exorbital lacrimal gland removal, fluorescein staining score)
Assay type: in vivo, male SD rats
Settings: for Improvement ratio (%): {(control)-(compound)}/{(control)-(normal eye)}x100; for Mean value of total scores: fluorescein staining score (0-3 each for upper, middle, lower cornea), mean of 8 cases, normal eye 2.9, control 6.1; for effect on corneal damage (in words): rat corneal disorder models, instillation of rosiglitazone 0.02% or pioglitazone hydrochloride 0.01%, 6 times a day for 14 days
Experimental: Test For Therapeutic Effect On Corneal Damage
Using male SD rats, in accordance with the method of Fujihara et al. (Invest. Ophthalmol. Vis. Sci. 42 (1) 96-100 (2001)), corneal disorder models were produced. After the production of the corneal disorder models, the improvement ratio of a corneal damage was evaluated by a method (Journal of the eye 21 (1) : 87-90 (2004)) modified from the method of Miyata et al. (Japanese Review of Clinical Ophthalmology 48 (2) : 183-188 (1994)).
A male SD rat was systemically anesthetized by an administration of Nembutal. Subsequently the exorbital lacrimal gland was removed and a corneal damage was induced over a period of 2 months.
Then, the present compound (rosiglitazone or pioglitazone hydrochloride) was administered as follows.
A physiological saline solution of rosiglitazone (0.02%) was instilled into both eyes 6 times a day for 14 days (one group consisting of 8 animals).
A physiological saline solution of pioglitazone hydrochloride (0.01%) was instilled into both eyes 6 times a day for 14 days (one group consisting of 8 animals).
In a control group, physiological saline was instilled into both eyes 6 times a day for 14 days (one group consisting of 8 animals).
Fourteen days after the start of instillation, the damaged parts of the cornea were stained with fluorescein. For each of the upper, middle and lower parts of the cornea, the degree of fluorescein staining was evaluated by scoring according to the criteria shown below and the improvement ratio of corneal damage was calculated from the mean value of the total scores for each of the above-mentioned parts.
• 0: No punctate staining • 1: Scattered staining (punctate staining being separated) • 2: Moderate staining (a part of punctate staining being adjacent) • 3: Heavy staining (punctate staining being barely separated) (Results)
By taking the mean value of the total scores for the control group (physiological saline) as a standard (improvement ratio: 0%) and according to the calculation formula shown below, the improvement ratios for rosiglitazone (0.02%) instillation group and pioglitazone (0.01%) instillation group were calculated, which are shown in Table 1. The mean value of the scores is a mean of those of 8 cases, respectively. Improvement ratio(%)={(control)−(the present compound)}/damage degree×100
Damage degree=(control)−(normal eye)

[1] = 0.01% (pioglitazone hydrochloride) in physiological saline instilled into both eyes 6 times a day for 14 days
[2] = 0.02% in physiological saline instilled into both eyes 6 times a day for 14 days

SMILES	Improvement ratio (%) [1] [%]	Mean value of total scores [1]	effect on corneal damage (in words) (listed as pioglitazone)	effect on corneal damage (in words) (listed as pioglitazone hydrochloride)	Improvement ratio (%) [2] [%]	Mean value of total scores [2]	effect on corneal damage (in words)
CCc1ccc(CCOc2ccc(CC3SC(=O)NC3=O)cc2)nc1 (stereo not shown) [Pioglitazone, 5-[[4-[2-(5-ethyl-2-pyridinyl)ethoxy]phenyl]methyl]-2,4-thiazolidinedione]	62.5	4.1	significantly improve a corneal damage	excellent improving effect			
CN(CCOc1ccc(CC2SC(=O)NC2=O)cc1)c1ccccn1 (stereo not shown) [Rosiglitazone, 5-[p-[2-(methyl-2-pyridylamino)ethoxy]benzyl]-2,4-thiazolidinedione]					68.7	3.9	excellent improving effect; also recorded: significantly improve a corneal damage
